The assay concerns the target T1, human DPP-IV (Homo sapiens, UniProt P27487).
T1 construct: made in house; host or cells: Pichia pastoris, purified from the culture medium
In words: DPP-IV activity assay (colorimetric / fluorometric), IC50 determination. It counts as biochemical. The note with it: natural human DPP-IV from human plasma pool or recombinant human DPP-IV; 37° C., pH 7.8. As for the experimental part: The following tests were carried out in order to determine the activity of the compounds of formula I.
Activity of DPP-IV inhibitors are tested with natural human DPP-IV derived from a human plasma pool or with recombinant human DPP-IV. Human citrate plasma from different donors is pooled, filtered through a 0.2 micron membrane under sterile conditions, and aliquots of 1 ml are shock frozen and stored at −120° C. until used. In the colorimetric DPP-IV assay 5 to 10 μl human plasma, and in the fluorometric assay 1.0 μl of human plasma in a total assay volume of 100 μl is used as an enzyme source. The cDNA of the human DPP-IV sequence of amino acid 31- to 766, restricted for the N-terminus and the transmembrane domain, is cloned into pichia pastoris. The sequence is available under Accession Number NM_001935. It is also disclosed, for example, in Misumi et al. (1992), molecular cloning and sequence analysis of human dipeptidyl peptidase IV, a serine proteinase of the cell surface. Biochim Biophys. Acta 1131(3), 333-336. Human DPP-IV is expressed and purified from the culture medium using conventional column chromatography including size exclusion and anion and cation chromatography. The purity of the final enzyme preparation of Coomassie blue SDS-PAGE is >95%. In the colorimetric DPP-IV assay 20 ng rec.-h DPP-IV and in the fluorometric assay 2 ng rec-h DPP-IV in a total assay volume of 100 μl is used as an enzyme source.
In the fluorogenic assay Ala-Pro-7-amido-4-trifluoromethylcoumarin (Calbiochem No 125510) is used as a substrate. A 20 mM stock solution in 10% DMF/H2O is stored at −20° C. until use. In IC50 determinations a final substrate concentration of 50 μM is used. In assays to determine kinetic parameters as Km, Vmax, Ki, the substrate concentration is varied between 10 μM and 500 μM.
In the colorimetric assay H-Ala-Pro-pNA.HCl (Bachem L-1115) is used as a substrate. A 10 mM stock solution in 10% MeOH/H2O is stored at −20° C. until use. In IC50 determinations a final substrate concentration of 200 μM is used. In assays to determine kinetic parameters as Km, Vmax, Ki, the substrate concentration is varied between 100 μM and 2000 μM.
Fluorescence is detected in a Perkin Elmer Luminescence Spectrometer LS 50B at an excitation wavelength of 400 nm and an emission wavelength of 505 nm continuously every 15 seconds for 10 to 30 minutes. Initial rate constants are calculated by best fit linear regression.
The absorption of pNA i.e., para-nitroanilin, liberated from the colorimetric substrate is detected in a Packard SpectraCount at […] continuously every 2 minutes for 30 to 120 minutes. Initial rate constants are calculated by best fit linear regression.
DPP-IV activity assays are performed in 96 well plates at 37° C. in a total assay volume of 100 μl. The assay buffer consists of 50 mM Tris/HCl pH 7.8 containing 0.1 mg/ml BSA and 100 mM NaCl. Test compounds are solved in 100% DMSO, diluted to the desired concentration in 10% DMSO/H2O. The final DMSO concentration in the assay is 1% (v/v). At this concentration enzyme inactivation by DMSO is <5%. Compounds are with (10 minutes at 37° C.) and without preincubation with the enzyme. Enzyme reactions are started with substrate application followed by immediate mixing.
IC50 determinations of test compounds are calculated by non-linear best fit regression of the DPP-IV inhibition of at least 5 different compound concentrations. Kinetic parameters of the enzyme reaction are calculated at least 5 different substrate concentrations and at least 5 different test compound concentrations.
T1 sequence (P27487 31-766): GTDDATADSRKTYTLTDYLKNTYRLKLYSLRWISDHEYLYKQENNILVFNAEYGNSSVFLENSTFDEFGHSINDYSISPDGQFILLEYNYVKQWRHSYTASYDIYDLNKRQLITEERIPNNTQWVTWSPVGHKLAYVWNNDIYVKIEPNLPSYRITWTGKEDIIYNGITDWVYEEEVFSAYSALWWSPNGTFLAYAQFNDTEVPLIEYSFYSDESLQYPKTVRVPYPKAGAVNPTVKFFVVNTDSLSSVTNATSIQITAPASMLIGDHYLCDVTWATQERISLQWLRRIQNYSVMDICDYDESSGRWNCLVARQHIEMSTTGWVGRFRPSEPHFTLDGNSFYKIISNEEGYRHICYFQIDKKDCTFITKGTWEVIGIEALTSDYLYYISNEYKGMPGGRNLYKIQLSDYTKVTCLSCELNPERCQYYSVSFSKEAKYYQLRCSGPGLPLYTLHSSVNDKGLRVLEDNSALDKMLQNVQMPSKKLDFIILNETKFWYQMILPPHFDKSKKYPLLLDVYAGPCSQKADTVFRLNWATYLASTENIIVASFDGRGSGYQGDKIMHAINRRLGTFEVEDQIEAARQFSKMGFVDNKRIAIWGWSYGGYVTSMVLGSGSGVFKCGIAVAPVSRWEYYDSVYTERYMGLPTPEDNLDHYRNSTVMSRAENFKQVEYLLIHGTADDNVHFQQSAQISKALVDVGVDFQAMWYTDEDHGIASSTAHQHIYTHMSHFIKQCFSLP
`NCc1c(N)nc2c(c1-c1ccc(Cl)cc1Cl)CCc1ccccc1-2` [Example 3, 3-Aminomethyl-4-(2,4-dichloro-phenyl)-5,6-dihydro-benzo[h]quinolin-2-ylamine]: the IC50 is 45 nM.

For `COc1cc2c(cc1OC)-c1nc(N)c(CN)c(-c3ccc(Cl)cc3Cl)c1C2` [Example 7, 3-Aminomethyl-4-(2,4-dichloro-phenyl)-7,8-dimethoxy-5H-indeno[1,2-b]pyridin-2-ylamine], the IC50 amounted to 2.7 nM.

As to `NCc1c(N)nc2c(c1-c1ccc(Cl)cc1Cl)COc1ccccc1-2` [Example 9, 2-Aminomethyl-1-(2,4-dichloro-phenyl)-10H-9-oxa-4-aza-phenanthren-3-ylamine], the IC50 amounted to 18 nM.

`NCc1c(N)nc2c(c1-c1ccc(Cl)cc1Cl)CCc1sccc1-2` [Example 10, 3-Aminomethyl-4-(2,4-dichloro-phenyl)-5,6-dihydro-thieno[2,3-h]quinolin-2-ylamine]: the IC50 was found to be 80 nM.

Turning to `Cc1ccc(-c2c(CN)c(N)nc3ccccc23)cc1` [Example 25, 3-Aminomethyl-4-p-tolyl-quinolin-2-ylamine], the IC50 is 1910 nM.

Take `NCc1c(N)nc2ccc(Cl)cc2c1-c1ccccc1Cl` [Example 28, 3-Aminomethyl-6-chloro-4-(2-chloro-phenyl)-quinolin-2-ylamine]: the IC50 turned out to be 1590 nM.

In the case of `NCc1c(N)nc2ccccc2c1-c1ccccc1Cl` [Example 32, 3-Aminomethyl-4-(2-chloro-phenyl)-quinolin-2-ylamine], the 50% inhibitory concentration (IC50) was found to be 366 nM.

The IC50 is the concentration at which inhibition is half-maximal.

(Values after patent US6800650B2, “Pyridine and quinoline derivatives” (Hoffmann-La Roche Inc., priority 2002, dated 2004).)
